Measured values: PubChem BioAssay (NCI)
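Tested at 5 concentrations; 48 h exposure; 96-well plates; endpoints linearly interpolated, else capped at highest concentration. GI50 marks 50% less growth. TGI: total growth inhibition.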

Assays:
Assay in all cases: NCI anticancer screen, dose series, 48 h
[1] = test system: SK-MEL-5 melanoma
[2] = test system: 786-0 renal
[3] = test system: MALME-3M melanoma
[4] = test system: SNB-75 CNS
[5] = test system: SNB-19 CNS
[6] = test system: NCI-H460 lung
[7] = test system: U251 CNS
[8] = test system: HCC-2998 colon
[9] = test system: NCI-H522 lung
[10] = test system: SW-620 colon
[11] = test system: A498 renal
[12] = test system: RPMI-8226 leukemia
[13] = test system: ACHN renal
[14] = test system: HOP-92 NSCLC
[15] = test system: MDA-MB-231 breast
[16] = test system: EKVX NSCLC
[17] = test system: OVCAR-3 ovarian
[18] = test system: RXF 393 renal
[19] = test system: UO-31 renal
[20] = test system: IGROV1 ovarian
[21] = test system: UACC-257 melanoma
[22] = test system: SF-539 CNS
[23] = test system: SK-OV-3 ovarian
[24] = test system: NCI-H226 lung
[25] = test system: OVCAR-4 ovarian
[26] = test system: BT-549 breast
[27] = test system: SN12C renal
[28] = test system: SR leukemia
[29] = test system: NCI-H23 lung
[30] = test system: KM12 colon
[31] = test system: DU-145 prostate
[32] = test system: OVCAR-8 ovarian
[33] = test system: TK-10 renal
[34] = test system: MOLT-4 leukemia
[35] = test system: OVCAR-5 ovarian
[36] = test system: HOP-62 NSCLC
[37] = test system: M14 melanoma
[38] = test system: T-47D breast
[39] = test system: SK-MEL-28 melanoma
[40] = test system: HCT-15 colon
[41] = test system: CAKI-1 renal
[42] = test system: NCI/ADR-RES ovarian
[43] = test system: SF-295 CNS
[44] = test system: SK-MEL-2 melanoma
[45] = test system: HT29 colon
[46] = test system: K-562 leukemia
[47] = test system: A549 NSCLC
[48] = test system: HL-60(TB) leukemia
[49] = test system: CCRF-CEM leukemia
[50] = test system: SF-268 CNS
[51] = test system: UACC-62 melanoma
[52] = test system: COLO 205 colon

COc1cc(/C=C/C(=O)/C=C/c2ccc(-n3ccnc3C)cc2)ccc1O
GI50 [1]: 3.25 µM
TGI [1]: 11.9 µM
GI50 [2]: 2.11 µM
TGI [2]: 5.21 µM
GI50 [3]: 4.63 µM
TGI [3]: 30.5 µM
GI50 [4]: 9.61 µM
TGI [4]: > 100 µM
GI50 [5]: 4.62 µM
TGI [5]: 86.3 µM
GI50 [6]: 15.4 µM
TGI [6]: 43.4 µM
GI50 [7]: 2.31 µM
TGI [7]: 6.4 µM
GI50 [8]: 1.75 µM
TGI [8]: 3.21 µM
GI50 [9]: 5.26 µM
TGI [9]: 24.9 µM
GI50 [10]: 2.23 µM
TGI [10]: 5.63 µM
GI50 [11]: 10.4 µM
TGI [11]: 23.7 µM
GI50 [12]: 1.84 µM
TGI [12]: 6.1 µM
GI50 [13]: 3.04 µM
TGI [13]: 10.4 µM
GI50 [14]: 10.1 µM
TGI [14]: 45.6 µM
GI50 [15]: 2.87 µM
TGI [15]: 9.03 µM
GI50 [16]: 21 µM
TGI [16]: 99 µM
GI50 [17]: 2.85 µM
TGI [17]: 8.41 µM
GI50 [18]: 1.66 µM
TGI [18]: 3.18 µM
GI50 [19]: 1.51 µM
TGI [19]: 3.15 µM
GI50 [20]: 2.04 µM
TGI [20]: 5.12 µM
GI50 [21]: 3.33 µM
TGI [21]: 13.5 µM
GI50 [22]: 2.19 µM
TGI [22]: 5.53 µM
GI50 [23]: 8.14 µM
TGI [23]: > 100 µM
GI50 [24]: 2.37 µM
TGI [24]: 6.4 µM
GI50 [25]: 8.87 µM
TGI [25]: > 100 µM
GI50 [26]: 1.97 µM
TGI [26]: 4.82 µM
GI50 [27]: 2.36 µM
TGI [27]: 6.63 µM
GI50 [28]: 2.55 µM
TGI [28]: > 100 µM
GI50 [29]: 2.08 µM
TGI [29]: 5.5 µM
GI50 [30]: 2.07 µM
TGI [30]: 4.25 µM
GI50 [31]: 2.82 µM
TGI [31]: 7.55 µM
GI50 [32]: 3.52 µM
TGI [32]: > 100 µM
GI50 [33]: 4.74 µM
TGI [33]: 90.4 µM
GI50 [34]: 4.05 µM
TGI [34]: > 100 µM
GI50 [35]: 14.9 µM
TGI [35]: 39.3 µM
GI50 [36]: 3.18 µM
TGI [36]: 10.5 µM
GI50 [37]: 2.25 µM
TGI [37]: 5.94 µM
GI50 [38]: 3.12 µM
TGI [38]: 15.1 µM
GI50 [39]: 2.18 µM
TGI [39]: 5 µM
GI50 [40]: 2.6 µM
TGI [40]: 8.47 µM
GI50 [41]: 3.06 µM
TGI [41]: 10.9 µM
GI50 [42]: 14.5 µM
TGI [42]: > 100 µM
GI50 [43]: 24.6 µM
TGI [43]: > 100 µM
GI50 [44]: 26 µM
TGI [44]: 84.2 µM
GI50 [45]: 1.95 µM
TGI [45]: 3.9 µM
GI50 [46]: 3.32 µM
TGI [46]: > 100 µM
GI50 [47]: 3.22 µM
TGI [47]: > 100 µM
GI50 [48]: 3.26 µM
TGI [48]: 32.5 µM
GI50 [49]: 4.07 µM
TGI [49]: > 100 µM
GI50 [50]: 2.9 µM
TGI [50]: 12.1 µM
GI50 [51]: 4.49 µM
TGI [51]: 21.3 µM
GI50 [52]: 3.4 µM
TGI [52]: 12.1 µM
